Data reported in patent EP4410284A1, “COMPOUND AND METHOD FOR THE TREATMENT OF ZELLWEGER SPECTRUM DISORDER” (Apteeus, priority 2023, dated 2024).
Like-named read-outs stand apart in the source and are kept apart here.

Tests used:
PEX405 cells [1] = test: Catalase import immunofluorescence, high-content screening (% importing cells); format: cell-based, human; details: PEX405 cells, 3 days
GM16513 cells [2] = test: as above; format: cell-based, human; details: for EC50 / Emax: Homo sapiens, 72 h; for Emax: read-out: Max Efficacy (% Importing cells)
Experimental: Primary fibroblasts were seeded at 500-700 cells per well in 384-well plates and grown at 37°C overnight. Cells were treated with test compounds or 0.1% DMSO for 3 days. After 3 days and a wash with PBS, cells were fixed with 4% paraformaldehyde (Electron Microscopy Sciences) in PBS for 20 minutes. After 3 washes with PBS, the cells were permeabilized and blocked with 0.3% Triton X-100, 1% BSA in PBS for 30 minutes at room temperature followed by 3 washes with 1% BSA in PBS. The cells were incubated with a rabbit Catalase polyclonal antibody (#12980 Cell signaling) overnight at 4°C. Following 3 washes with PBS containing 0.1% Tween-20, the cells were incubated for 1 h at room temperature with a conjugated goat anti-rabbit secondary antibody Alexa Fluor 647 (Ab150083-Abcam). The cells were then washed 3 times with PBS and Hoechst 33342 (H3570-ThermoFisher Scientific) + HCS Cellmask Blue (H32720 - ThermoFisher Scientific) staining was performed at 0.1 µg/ml and 0.4 µg/mL respectively for 30 minutes at room temperature. The cells were finally washed 3 times with PBS and fluorescent images were acquired using the INCell Analyzer 6000 imaging platform (GE Healthcare Life Sciences).
Images analysis was done using Columbus analysis software (PerkinElmer). DAPI channel was used to find nuclei (Hoechst 33342) and cytoplasm (HCS CellMask Blue) and border objects were removed. Cy5 channel (AlexaFluor 647) was used to find spots corresponding to peroxisomes which correctly import catalase. […] The number of importing or non-importing cells was calculated. Finally, results were expressed as % of importing cells.
The cytotoxicity was assessed in parallel using a double nucleus staining with Hoechst 33342 and Propidium Iodide (PI).
The EC50 and maximum efficacy of these inhibitors were determined.

GM16513 cells [3] = format: cell-based; details: 3 days, PI positive cells (dead cells)
Experimental: (§1) Images were acquired using the EnSight multimode plate reader (PerkinElmer) and analysis was done using Columbus analysis software (PerkinElmer). […] Then the total number of cells and the % of dead cells was calculated.
(§2) All HDAC inhibitors were tested at 1.3 and 10 µM for 3 days on GM16513 and PEX405 cells.

PEX405 cells [4] = format: cell-based; details: 3 days, PI positive cells (dead cells)
Experimental: as §1, §2

[5] = GM16513 cells, dose response with 6 concentrations, 3 days, read-out: EC50
[6] = GM16513 cells, dose response with 6 concentrations, 3 days

| SMILES | % Importing cells (PEX405 cells [1]; 1.3 µM) | % Importing cells (PEX405 cells [1]; 10 µM) | % Importing cells (GM16513 cells [2]; GM16513 cells, 1.3 µM, 3 days) | % Importing cells (GM16513 cells [2]; GM16513 cells, 10 µM, 3 days) | % PI+ cells (GM16513 cells [3]; 1.3 µM) | % PI+ cells (GM16513 cells [3]; 10 µM) | EC50 (GM16513 cells [2]; [5]) | Emax (GM16513 cells [2]; [6]) | % PI+ cells (PEX405 cells [4]; 1.3 µM) | % PI+ cells (PEX405 cells [4]; 10 µM) | EC50 (GM16513 cells [2]) | Emax (GM16513 cells [2]) |
| --- | --- | --- | --- | --- | --- | --- | --- | --- | --- | --- | --- | --- |
| COc1cc(C=CC(=O)O)cc(OC)c1O (stereo in doubt) [Sinapinic acid] | 3% | 3% | 21% | 18% |  |  |  |  |  |  |  |  |
| Nc1cc(F)ccc1NC(=O)c1ccc(CNC(=O)/C=C/c2cccnc2)cc1 [Tucidinostat] | 14% | 28% | 43% | 64% | 1% | 4% | 1500 nM | 70% | 0% | 2% |  |  |
| C#Cc1cccc(Nc2ncnc3cc(OC)c(OCCCCCCC(=O)NO)cc23)c1 [CUDC-101] | 23% | 49% | 60% | 90% | 2% | 23% | 700 nM | 100% | 1% | 44% |  |  |
| CCCCOc1ccc(CC(=O)NO)cc1 [Bufexamac] | 4% | 50% | 26% | 25% | 2% | 1% |  |  | 1% | 0% |  |  |
| CC(=O)Nc1ccc(C(=O)Nc2cc(-c3cccs3)ccc2N)cc1 [BRD-6929] | 20% | 38% | 66% | 88% | 1% | 3% |  |  | 1% | 1% |  |  |
| Cl.O=C(NO)c1ccc(Cn2cc(-c3ccc(CN4CCCC4)cc3)nn2)cc1 [FNDR-20123] | 7% | 0% | 84% | 47% | 11% | 40% |  |  | 9% | 61% |  |  |
| Nc1ccccc1NC(=O)CCCCCC(=O)Nc1ccccc1 [NKL 22] | 7% | 13% | 28% | 55% | 1% | 4% |  |  | 0% | 1% |  |  |
| O=C(CCCCCCNC(=O)c1cnc(N(c2ccccc2)c2ccccc2Cl)nc1)NO [Citarinostat] | 9% | 53% | 47% | 90% | 1% | 4% | 3200 nM | 93% | 0% | 2% |  |  |
| COc1ccc(Cn2ccc3ccc(C(=O)NO)cc32)cc1 [PCI-34051] | 2% | 1% | 16% | 7% | 1% | 2% |  |  | 1% | 1% |  |  |
| Cn1c(CCCCCCC(=O)NO)nc2cc(N(CCCl)CCCl)ccc21 [EDO-S101] | 7% | 55% | 35% | 89% | 2% | 8% |  |  | 1% | 7% | 3000 nM | 90% |
| Cn1cc(CNCC2CCN(c3ncc(C(=O)NO)cn3)CC2)c2ccccc21 [Quisinostat] | 40% | 26% | 98% | 86% | 17% | 38% | 30 nM | 95% | 24% | 53% |  |  |
| CN1CCc2c(c3ccccc3n2Cc2ccc(C(=O)NO)cc2)C1 [Tubastatin A] | 5% | 6% | 26% | 32% | 1% | 1% |  |  | 1% | 1% |  |  |
| O=C(NO)c1cccc2ccccc12 [1-Naphthohydroxamic acid] | 3% | 2% | 12% | 13% | 1% | 1% |  |  | 0% | 0% |  |  |
| O=C(NO)c1cnc(NC2(c3ccccc3)CC2)nc1 [ACY-738] | 5% | 31% | 31% | 85% | 1% | 3% |  |  | 1% | 1% |  |  |
| O=C(NO)c1ccc(Cn2c(=O)n(CCc3ccccc3)c(=O)c3ccccc32)cc1 [J22352] | 5% | 3% | 30% | 47% | 1% | 3% |  |  | 0% | 2% |  |  |
